{"source": "patent US12023319B2", "about": "“Carboxylic acid aromatic amides” (priority 2016, dated 2024)", "key": {"[1]": {"test_system": "Female Brown Norway rats", "experiment": "Rat model for endometriosis, acute phase (4 day)", "type": "in vivo", "settings": "rat 4 day endometriosis model, once daily p.o. 1, 5, 15, 60 mg/kg", "experimental": "4. Rat Model for Endometriosis, Acute Phase Female Brown Norway rats (Charles-River) were treated p.o. with Compound Example 3 (doses: 1 mg/kg, 5 mg/kg, 15 mg/kg, 60 mg/kg) or vehicle alone (10% DMSO+90% phosphate buffered saline (PBS)). 2 h later all animals got under deep anesthesia a transplantation of 6 uterus pieces in the peritoneal cavity. The tissue was obtained from donor animals which were pre-treated with 3 μg s.c. Estradiol (E2) for 2 days to guarantee standardized conditions of the uterus tissue. The animals were treated once daily p.o. with Compound Example 3 (doses: 1 mg/kg, 5 mg/kg, 15 mg/kg, 60 mg/kg) or vehicle alone (10% DMSO+90% phosphate buffered saline (PBS). 4 days later the animals were sacrificed and the transplants as surrogate endometriosis lesion tissue were analyzed for markers of lesion activity (inflammatory cytokines and proliferation marker). This approach is mimicking the early inflammatory phase of endometriosis close to menstruation. Analysis For RNA expression analysis the lesions, were excised. RNA was isolated after homogenization of tissues in guanidinium thiocyanate using the RNeasy mini Kit (Qiagen) with DNase digestion. […] Relative mRNA levels were calculated using the comparative CT method using the RQ-Manager software (Applied Biosystems). […]"}, "[2]": {"test_system": "B6-Mice expressing the human B1 receptor", "experiment": "Mouse model for peritonitis (thioglycollate induced, peroxidase activity in lavage)", "type": "in vivo", "settings": "p.o. 30, 100 mg/kg, lavage 24 h after induction, significantly, FIG. 7", "experimental": "6. Mouse Model for Peritonitis\nBlack 6 (B6)-Mice expressing the human B1 receptor, lacking the murine B1 receptors which were specifically generated (B6-hBDKRB1 <tm1Arte>/N) and employed for a thioglycollate induced peritonitis model to test for effects of Bradykinin B1 receptor antagonism on peritoneal inflammation and related leukocyte trafficking which reflects the mode of actions underlying endometriosis.\nAnimals were treated p.o. with Compound Example 3 (doses: 30 mg/kg, 100 mg/kg) or respective vehicle (10% DMSO+90% phosphate buffered saline (PBS) alone 1 h before i.p. application of 1 ml 4% thioglycollate medium (in sterile PBS, matured for >4 weeks). The treatment with vehicle or Compund Example 3 was repeated 3 and 24 hours after induction of peritonitis. 24 h after peritonitis induction the animals were sacrificed and a lavage of peritoneal fluid performed. The resulting lavage is analysed for peroxidase enzyme activity which is reflecting number of activated neutrophils in the peritoneal cavity by peroxidase activity assay as follows:\nTetramethylbenzidine (TMB) dihydrochloride is used as a sensitive chromogen substrate for peroxidase. […]\nChanges in optical densities (OD) are monitored in an ELISA plate-reader at 450 nm at 25° Celsius against the mixture of all solutions without the added sample homogenate. […]"}, "[3]": {"test_system": "male Lewis rats", "experiment": "In vivo adjuvant-induced arthritis (AIA) model", "design": "species or system rat", "from_the_text": "10. In Vivo Adjuvant-Induced Arthritis (AIA) Model\nThe AIA model is characterized by a rapid onset and progression to polyarticular inflammation. Following the injection of CFA, signs of arthritis usually develop between day 10 and day 14. Typically, the disease is severe and leads to permanent joint malformations, including ankylosis. Joint swelling, lymphocyte infiltration, and cartilage degradation are shared features with human autoimmune arthritis.\nTo determine the anti-inflammatory activity of the Compound Examples, they were examined for their in vivo efficacy in an arthritis model. For this purpose, male Lewis rats (about 100 to 125 g, Charles River Laboratories, Germany) were each administered 100 μl of a complete Freund's adjuvant (CFA) solution (M. tuberculosis H37Ra [Difo Lab, Cat. No. 231141] dissolved in Incomplete Freund's adjuvant [Difco Lab, Cat. No. 263910]) into the tailhead subcutaneously on day 0. There were n=8 rats in each group. Both, a healthy control group and a disease control group treated with the vehicle only were included in the study. Each control group was given oral (p.o. or PO) treatment only with the vehicle (5% DMSO/95% PBS) of the Compound Examples. The treatment with different dosages of the Compound Examples dissolved in the vehicle was conducted in a preventative manner, i.e. starting from day 0 and continued to day 20, the end of the study, by daily oral administration. On day 0, the starting condition of the animals was determined in terms of the disease activity scores (rating of the severity of arthritis based on a points system). Here, points were awarded according to the extent of joint inflammation from 0 to 4 for the presence of an erythema including joint swelling (0=none; 1=slight; 2=moderate; 3=distinct; 4=severe) for both hind paws and were summed up to a single value. […] In addition, the extent of joint swelling was detected by measuring the ankles of hind paws sagittal×transversal [in mm^2] using an automated caliper (Bayer AG, Germany). Next to this, the grip strength, as a measure for hyperalgesia, using an automated grip strength test meter (IITC Life Science Inc., USA) was evaluated.\nStatistical analysis of obtained results for all parameters were done with one way Anova (ANOVA; Analysis of variance) and the comparison to the control group via multiple reference analysis (Dunnett-test)."}}}
{"molecule": "O=C(O)c1cc(NC(=O)C2(c3ccc(C(F)(F)F)cc3F)CC2)ccc1-c1cnn(C2CCC2)c1", "note": "[Example 3, 2-(1-Cyclobutyl-1H-pyrazol-4-yl)-5-[({1-[2-fluoro-4-(trifluoromethyl)phenyl]cyclopropyl}carbonyl)amino]benzoic acid]", "values": [{"measurement": "expression of proliferation marker (PCNA) in lesions", "setting": "[1]; FIG. 1", "result": "decreased"}, {"measurement": "expression of inflammatory cytokines in lesions (TNF alpha, IL-1 beta, IL-6)", "setting": "[1]; FIG. 2-4", "result": "decreased"}, {"measurement": "signal specific for neutrophil influx into inflamed tissue (peroxidase activity)", "setting": "[2]", "result": "reduced"}, {"measurement": "dose-dependency in the adjuvant-induced arthritis (AIA) model", "setting": "[3]; 60, 15 or 3 mg/kg QD p.o., day 0 to day 20", "result": "clear dose-dependency"}, {"measurement": "severity of rat AIA", "setting": "[3]; oral treatment with 60 mg/kg once daily", "result": "significantly inhibited"}, {"measurement": "disease activity score", "setting": "[3]; rat AIA model, oral once daily, FIG. 14A", "result": "reduction"}, {"measurement": "extent of joint swelling", "setting": "[3]; rat AIA model, oral once daily, FIG. 14B", "result": "reduction"}, {"measurement": "grip strength (hyperalgesia)", "setting": "[3]; rat AIA model, oral once daily, FIG. 15", "result": "increase"}]}
